One block for each molecule: values may come before it.
Columns and labels:
[1] = molecular target: T1, human Slack (Homo sapiens, UniProt Q5JUK3); assay: Whole-cell patch-clamp recordings in HEK-Slack cells; assay type: cell-based
T1 construct: host or cells: HEK293
T1 sequence (Q5JUK3 1-1230): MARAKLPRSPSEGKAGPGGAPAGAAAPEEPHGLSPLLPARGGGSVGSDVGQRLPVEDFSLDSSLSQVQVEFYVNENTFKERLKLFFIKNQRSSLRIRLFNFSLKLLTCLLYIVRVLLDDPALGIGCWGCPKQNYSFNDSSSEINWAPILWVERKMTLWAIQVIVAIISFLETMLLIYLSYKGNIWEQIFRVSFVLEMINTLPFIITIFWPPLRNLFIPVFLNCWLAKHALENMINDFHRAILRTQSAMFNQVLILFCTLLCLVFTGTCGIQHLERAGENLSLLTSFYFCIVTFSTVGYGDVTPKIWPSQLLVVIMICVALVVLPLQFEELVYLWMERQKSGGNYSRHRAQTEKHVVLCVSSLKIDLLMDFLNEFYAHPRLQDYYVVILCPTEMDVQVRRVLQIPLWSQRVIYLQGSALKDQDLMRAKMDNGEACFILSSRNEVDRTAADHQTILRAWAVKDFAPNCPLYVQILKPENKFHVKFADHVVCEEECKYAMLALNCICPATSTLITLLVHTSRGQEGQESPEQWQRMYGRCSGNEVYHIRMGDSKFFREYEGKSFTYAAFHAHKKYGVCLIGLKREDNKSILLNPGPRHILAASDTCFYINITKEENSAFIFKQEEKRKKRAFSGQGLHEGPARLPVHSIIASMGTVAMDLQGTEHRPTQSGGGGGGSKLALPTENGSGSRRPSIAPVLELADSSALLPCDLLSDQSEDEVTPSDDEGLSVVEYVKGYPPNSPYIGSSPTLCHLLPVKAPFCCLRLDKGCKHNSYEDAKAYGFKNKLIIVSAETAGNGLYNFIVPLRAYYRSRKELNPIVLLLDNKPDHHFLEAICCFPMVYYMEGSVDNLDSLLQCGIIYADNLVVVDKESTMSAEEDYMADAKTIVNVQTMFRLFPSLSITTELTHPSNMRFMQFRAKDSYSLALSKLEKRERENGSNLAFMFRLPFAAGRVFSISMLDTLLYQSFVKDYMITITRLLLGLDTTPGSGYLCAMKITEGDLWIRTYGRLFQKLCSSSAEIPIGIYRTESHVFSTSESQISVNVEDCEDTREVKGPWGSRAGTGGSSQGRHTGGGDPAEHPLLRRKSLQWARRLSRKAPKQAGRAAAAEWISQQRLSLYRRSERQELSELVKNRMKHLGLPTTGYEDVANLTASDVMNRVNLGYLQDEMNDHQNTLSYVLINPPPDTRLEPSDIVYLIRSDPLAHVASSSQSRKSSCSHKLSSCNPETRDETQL
Description: Generally, in these experiments, HEK-Slack cells were plated onto poly-D-lysine-coated (100 μg/mL, Sigma Aldrich) coverslips 1 day before experiments and cultured in DMEM containing 10% FBS and 1% penicillin/streptomycin in 5% CO2 at 37° C. Whole-cell voltage clamp recordings were acquired using an EPC 9 amplifier combined with Patchmaster software (HEKA Electronics, Lambrecht/Pfalz, Germany). Currents were sampled at 20 kHz and filtered at 5 KHz. Data analysis was performed using the Fitmaster software (HEKA Electronics). Membrane potential was held at −70 mV and outward K^+ current (IK) was evoked by depolarizing steps (500 ms duration) ranging from −120 to +120 mV in increments of 20 mV. The pipette solution contained 140 mM KCl, 2 mM MgCl2, 5 mM EGTA, 10 mM HEPES, and was adjusted to pH 7.4 with KOH. The extracellular solution contained 140 mM NaCl, 5 mM KCl, 2 mM CaCl2), 2 mM MgCl2, 10 mM HEPES, and was adjusted to pH 7.4 with NaOH.
At a holding potential of −70 mV a series of 500 ms-long test pulses ranging from −120 to +120 mV in intervals of 20 mV were applied.
Fold increase values in patch-clamp experiments were determined by calculating […].

[2] = test system: histamine-induced scratching of mice; assay: Histamine-induced acute itch model; assay type: in vivo; conditions: i.p.
Description: Further studies were conducted to assess the in vivo efficacy of Compound 6 and Compound 10 in mice. In detail, experiments were performed in 8 to 16 weeks old C57BL/6N mice (Charles River, Sulzfeld, Germany) and animals with a genetic deletion of Slack (Slack^−/− mice^27) of either sex. Animals were housed on a 12 h light/dark cycle with access to food and water ad libitum. All experiments adhered to the guidelines of the International Association for the Study of Pain and to the ARRIVE (Animal Research: Reporting on In Vivo Experiments) guidelines, and were approved by and conducted in accordance with the regulations of the local Animal Welfare authorities (Regierungspräsidium Darmstadt, Germany). All behavioral studies were conducted during the light cycle of the day at room temperature (20-24° C.) by an observer blinded for the treatment of the animals and/or their genotype.
Acute itch behavior of the mice was monitored using a histamine-based, chloroquine-based and SLIGRL-based acute itch behavior model. In these models, three to four days before the experiment day, the fur on the dorsolateral aspect of the neck was shaved under brief isoflurane anesthesia. On the testing day, mice were habituated for 30 min in separate plexiglass cylinders (30 cm diameter). […] Numbers of scratching bouts directed to the nape of the neck were assessed over 30 min by videotaping.

[3] = molecular target: T2, alpha-1A adrenergic receptor (α1A) (Homo sapiens, UniProt P35348); assay: SafetyScreen44 binding; conditions: substantial = higher than 50%
T2 construct: Eurofins SafetyScreen44
Description: (§1) Compound enzyme inhibition effect was calculated as a % inhibition of control enzyme activity. […] Measurements were performed in duplicate.

[4] = molecular target: T3, dopamine receptor D1 (D1) (Homo sapiens, UniProt P21728); assay: SafetyScreen44 binding; conditions: 10 μM; substantial = higher than 50%
T3 construct: Eurofins SafetyScreen44
Description: as §1

[5] = molecular target: T4, histamine H1 receptor (H1) (Homo sapiens, UniProt P35367); assay: SafetyScreen44 binding; conditions: 10 μM; substantial = higher than 50%
T4 construct: Eurofins SafetyScreen44
Description: as §1

[6] = molecular target: T5, norepinephrine transporter (NET) (Homo sapiens, UniProt P23975); assay: SafetyScreen44 binding; conditions: substantial = higher than 50%
T5 construct: Eurofins SafetyScreen44

[7] = molecular target: T6, serotonin transporter (SET) (Homo sapiens, UniProt P31645); assay: SafetyScreen44 binding; conditions: substantial = higher than 50%
T6 construct: Eurofins SafetyScreen44

[8] = molecular target: muscarine M1 receptor (Homo sapiens, UniProt P11229); assay: SafetyScreen44 binding; conditions: substantial = higher than 50%
Chain of muscarine M1 receptor (P11229 whole entry): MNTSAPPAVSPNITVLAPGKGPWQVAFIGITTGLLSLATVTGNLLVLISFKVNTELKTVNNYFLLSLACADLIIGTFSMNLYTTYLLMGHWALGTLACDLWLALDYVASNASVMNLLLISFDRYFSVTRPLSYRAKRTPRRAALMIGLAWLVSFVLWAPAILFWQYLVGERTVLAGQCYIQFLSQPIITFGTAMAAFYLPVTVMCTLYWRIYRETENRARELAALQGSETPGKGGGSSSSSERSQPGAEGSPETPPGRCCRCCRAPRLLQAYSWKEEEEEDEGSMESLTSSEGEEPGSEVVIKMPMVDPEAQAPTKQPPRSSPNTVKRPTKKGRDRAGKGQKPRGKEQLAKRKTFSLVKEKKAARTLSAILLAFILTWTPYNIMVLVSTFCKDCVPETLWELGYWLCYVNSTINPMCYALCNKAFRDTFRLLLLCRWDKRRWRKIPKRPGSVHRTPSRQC

T4 sequence (P35367 whole entry): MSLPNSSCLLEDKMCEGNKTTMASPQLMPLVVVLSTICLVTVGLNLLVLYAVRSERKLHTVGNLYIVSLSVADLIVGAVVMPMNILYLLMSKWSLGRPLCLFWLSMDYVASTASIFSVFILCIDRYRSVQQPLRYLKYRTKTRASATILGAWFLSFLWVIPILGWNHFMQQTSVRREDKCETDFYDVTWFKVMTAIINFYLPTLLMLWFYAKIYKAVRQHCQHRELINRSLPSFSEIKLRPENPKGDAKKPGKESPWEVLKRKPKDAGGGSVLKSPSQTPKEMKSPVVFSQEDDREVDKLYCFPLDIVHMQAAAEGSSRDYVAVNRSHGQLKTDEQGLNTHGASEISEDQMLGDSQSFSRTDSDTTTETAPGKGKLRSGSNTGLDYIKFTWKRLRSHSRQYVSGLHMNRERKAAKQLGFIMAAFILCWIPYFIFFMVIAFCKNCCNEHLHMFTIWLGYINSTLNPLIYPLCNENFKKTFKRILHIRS
T2 sequence (P35348 whole entry): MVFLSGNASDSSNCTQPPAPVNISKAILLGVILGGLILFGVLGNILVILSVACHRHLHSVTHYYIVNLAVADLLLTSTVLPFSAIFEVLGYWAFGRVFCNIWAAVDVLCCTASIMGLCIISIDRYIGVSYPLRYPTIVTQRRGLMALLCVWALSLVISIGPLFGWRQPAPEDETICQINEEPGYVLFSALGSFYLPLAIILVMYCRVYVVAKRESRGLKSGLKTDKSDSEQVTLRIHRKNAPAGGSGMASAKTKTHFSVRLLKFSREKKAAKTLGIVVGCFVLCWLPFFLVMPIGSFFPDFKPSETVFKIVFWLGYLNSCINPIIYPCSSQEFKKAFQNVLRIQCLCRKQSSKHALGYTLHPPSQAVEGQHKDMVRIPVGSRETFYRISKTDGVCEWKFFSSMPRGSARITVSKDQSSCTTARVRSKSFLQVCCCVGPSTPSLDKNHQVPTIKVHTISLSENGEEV
T5 sequence (P23975 whole entry): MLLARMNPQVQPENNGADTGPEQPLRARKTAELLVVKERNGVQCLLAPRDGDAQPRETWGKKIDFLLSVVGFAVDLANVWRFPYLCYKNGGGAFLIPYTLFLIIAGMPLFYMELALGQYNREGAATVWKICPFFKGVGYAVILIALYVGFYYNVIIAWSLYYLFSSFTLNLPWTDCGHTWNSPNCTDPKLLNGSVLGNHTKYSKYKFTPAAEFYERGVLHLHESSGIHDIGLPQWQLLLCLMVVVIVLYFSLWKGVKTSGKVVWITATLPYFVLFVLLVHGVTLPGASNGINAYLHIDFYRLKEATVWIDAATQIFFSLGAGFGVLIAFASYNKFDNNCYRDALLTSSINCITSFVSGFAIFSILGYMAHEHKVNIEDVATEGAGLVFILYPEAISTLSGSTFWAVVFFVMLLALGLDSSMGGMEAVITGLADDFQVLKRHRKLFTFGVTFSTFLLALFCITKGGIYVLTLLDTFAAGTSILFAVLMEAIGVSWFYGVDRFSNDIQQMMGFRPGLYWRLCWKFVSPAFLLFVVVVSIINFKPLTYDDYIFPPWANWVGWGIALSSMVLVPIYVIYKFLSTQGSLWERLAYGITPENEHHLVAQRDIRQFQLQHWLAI
T6 sequence (P31645 whole entry): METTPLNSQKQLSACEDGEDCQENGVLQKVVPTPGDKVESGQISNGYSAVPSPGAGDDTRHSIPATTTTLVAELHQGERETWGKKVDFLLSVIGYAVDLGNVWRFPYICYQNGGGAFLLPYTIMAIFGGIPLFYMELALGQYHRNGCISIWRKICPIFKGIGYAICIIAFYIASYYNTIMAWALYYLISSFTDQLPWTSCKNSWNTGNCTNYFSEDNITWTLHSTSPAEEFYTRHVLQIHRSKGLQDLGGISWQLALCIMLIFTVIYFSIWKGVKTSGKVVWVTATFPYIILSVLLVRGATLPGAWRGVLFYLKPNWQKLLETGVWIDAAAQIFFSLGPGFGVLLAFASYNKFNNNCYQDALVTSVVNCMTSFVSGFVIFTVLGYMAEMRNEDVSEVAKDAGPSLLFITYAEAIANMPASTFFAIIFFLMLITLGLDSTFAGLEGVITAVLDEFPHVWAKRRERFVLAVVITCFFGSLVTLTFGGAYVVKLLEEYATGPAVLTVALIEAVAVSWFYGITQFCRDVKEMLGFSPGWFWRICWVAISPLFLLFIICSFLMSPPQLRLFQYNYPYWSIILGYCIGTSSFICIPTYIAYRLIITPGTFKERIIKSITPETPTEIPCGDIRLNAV
T3 sequence (P21728 whole entry): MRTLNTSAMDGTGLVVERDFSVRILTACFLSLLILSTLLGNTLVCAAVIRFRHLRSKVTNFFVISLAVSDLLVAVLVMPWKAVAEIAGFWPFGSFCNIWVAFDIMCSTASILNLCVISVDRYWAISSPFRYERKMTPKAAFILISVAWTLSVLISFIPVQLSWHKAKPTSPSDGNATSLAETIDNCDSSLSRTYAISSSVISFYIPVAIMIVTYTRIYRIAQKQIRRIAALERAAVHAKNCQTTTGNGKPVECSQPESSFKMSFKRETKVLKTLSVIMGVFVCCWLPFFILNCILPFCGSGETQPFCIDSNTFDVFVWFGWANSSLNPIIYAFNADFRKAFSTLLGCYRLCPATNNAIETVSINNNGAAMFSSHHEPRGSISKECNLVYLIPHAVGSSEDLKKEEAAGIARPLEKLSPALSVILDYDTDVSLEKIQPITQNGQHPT

- IK amplitude in comparison to vehicle ([1]; 50 μM): all except Compound 3
Structure (SMILES): CN1CCCN(C2=Nc3ccccc3Oc3ccc(C(F)(F)F)cc32)CC1 [Compound 3, 11-(4-Methyl-1,4-diazepan-1-yl)-2-(trifluoromethyl)dibenzo[b,f][1,4]oxazepine]

Structure (SMILES): O=C(O)COCCN1CCN(C2=Nc3ccccc3Oc3ccc(Cl)cc32)CC1 [Compound 6, 2-(2-(4-(2-Chlorodibenzo[b,f][1,4]oxazepin-11-yl)piperazin-1-yl)ethoxy) acetic acid]
- scratching evoked by s.c. histamine [2]: not affected
- binding inhibition, α1A ([3]; 10 μM): substantial binding
- binding inhibition, D1 [4]: substantial binding
- binding inhibition, H1 [5]: substantial binding
- binding inhibition, NET ([6]; 10 μM): substantial binding
- binding inhibition, SET ([7]; 10 μM): substantial binding

- fold increase compared to baseline ([1]; 25 μM): 7.74±1.525 fold
- fold increase compared to baseline ([1]; 50 μM): 12.54±1.395 fold
Structure (SMILES): O=c1nc(CN2CCN(C3=Nc4ccccc4Oc4ccc(Cl)cc43)CC2)[nH][nH]1 [Compound 10, 5-((4-(2-Chlorodibenzo[b,f][1,4]oxazepin-11-yl)piperazin-1-yl)methyl)-1,2-dihydro-3H-1,2,4-triazol-3-one]
- binding inhibition, D1 [4]: substantial binding inhibition
- binding inhibition, H1 [5]: substantial binding inhibition

Structure (SMILES): CN1CCN(C2=Nc3ccccc3Oc3ccc(Cl)cc32)CC1 [Loxapine, 2-chloro-11-(4-methylpiperazin-1-yl)dibenzo[b,f][1,4]oxazepine, reference compound]
- inhibition at 10 µM [8]: > 50%
- inhibition at 10 µM [3]: > 50%
- inhibition at 10 µM [6]: > 50%
- inhibition at 10 µM [7]: > 50%
